Laboratory results: patent US11752120B2, “Use of succinic acid in increasing sensitivity of bacteria to antibiotics” (SUN YAT-SEN UNIVERSITY, priority 2018, dated 2023)
Structures can show the parent of a compound that is named as a salt.

Legend:
E. coli K12 = assay: Minimum inhibitory concentration (MIC), NCCLS method, control strain; format: cell-based, Escherichia coli; conditions: no unit in table, MIC in μg/mL
Source text: (§1) Escherichia coli (E. coli) are one of the most common bacteria in the clinic. 30 strains of E. coli obtained from the clinic were named YT1-30. The minimum inhibitory concentrations (MIC) of 8 antibiotics against these 30 clinically obtained E. coli was detected according to the NCCLS method, and E. coli K12 was used as a control.

[1] = system: clinical Escherichia coli YT1-30; assay: Minimum inhibitory concentration (MIC), NCCLS method, 30 clinical strains; format: cell-based; design: Minimum inhibitory concentration (MIC): unit not given here
Source text: as §1

CN(C)[C@@H]1C(O)=C(C(N)=O)C(=O)[C@@]2(O)C(O)=C3C(=O)c4c(O)cccc4[C@@](C)(O)[C@H]3C[C@@H]12 [Tetracycline]
Minimum inhibitory concentration (MIC) (E. coli K12): 1.526 | Minimum inhibitory concentration (MIC) ([1]; strain YT1): 6.1 | Minimum inhibitory concentration (MIC) ([1]; strain YT2): 24.414 | Minimum inhibitory concentration (MIC) ([1]; strain YT3): 97.656 | Minimum inhibitory concentration (MIC) ([1]; strain YT4): 390.625 | Minimum inhibitory concentration (MIC) ([1]; strain YT5): 390.625 | Minimum inhibitory concentration (MIC) ([1]; strain YT6): 97.656 | Minimum inhibitory concentration (MIC) ([1]; strain YT7): 97.656 | Minimum inhibitory concentration (MIC) ([1]; strain YT8): 97.656 | Minimum inhibitory concentration (MIC) ([1]; strain YT9): 97.656 | Minimum inhibitory concentration (MIC) ([1]; strain YT10): 97.656 | Minimum inhibitory concentration (MIC) ([1]; strain YT11): 97.656 | Minimum inhibitory concentration (MIC) ([1]; strain YT12): 6250 | Minimum inhibitory concentration (MIC) ([1]; strain YT13): 6250 | Minimum inhibitory concentration (MIC) ([1]; strain YT14): 6250 | Minimum inhibitory concentration (MIC) ([1]; strain YT15): 6250 | Minimum inhibitory concentration (MIC) ([1]; strain YT16): 6250 | Minimum inhibitory concentration (MIC) ([1]; strain YT17): 6250 | Minimum inhibitory concentration (MIC) ([1]; strain YT18): 1562.5 | Minimum inhibitory concentration (MIC) ([1]; strain YT19): 1562.5 | Minimum inhibitory concentration (MIC) ([1]; strain YT20): 1562.5 | Minimum inhibitory concentration (MIC) ([1]; strain YT21): 1562.5 | Minimum inhibitory concentration (MIC) ([1]; strain YT22): 1562.5 | Minimum inhibitory concentration (MIC) ([1]; strain YT23): 1562.5 | Minimum inhibitory concentration (MIC) ([1]; strain YT24): 1562.5 | Minimum inhibitory concentration (MIC) ([1]; strain YT25): 6.103 | Minimum inhibitory concentration (MIC) ([1]; strain YT26): 97.656 | Minimum inhibitory concentration (MIC) ([1]; strain YT27): 97.656 | Minimum inhibitory concentration (MIC) ([1]; strain YT28): 390.625 | Minimum inhibitory concentration (MIC) ([1]; strain YT29): 390.625 | Minimum inhibitory concentration (MIC) ([1]; strain YT30): 390.625

CCC[C@@H]1C[C@@H](C(=O)N[C@@H]([C@H]2O[C@H](SC)[C@H](O)[C@@H](O)[C@H]2O)[C@H](C)Cl)N(C)C1 [Clindamycin hydrochloride]
Minimum inhibitory concentration (MIC) (E. coli K12): 24.414 | Minimum inhibitory concentration (MIC) ([1]; strain YT1): 390.625 | Minimum inhibitory concentration (MIC) ([1]; strain YT2): 390.625 | Minimum inhibitory concentration (MIC) ([1]; strain YT3): 390.625 | Minimum inhibitory concentration (MIC) ([1]; strain YT4): 1562.5 | Minimum inhibitory concentration (MIC) ([1]; strain YT5): 6250 | Minimum inhibitory concentration (MIC) ([1]; strain YT6): 1562.5 | Minimum inhibitory concentration (MIC) ([1]; strain YT7): 6250 | Minimum inhibitory concentration (MIC) ([1]; strain YT8): 6250 | Minimum inhibitory concentration (MIC) ([1]; strain YT9): 1562.5 | Minimum inhibitory concentration (MIC) ([1]; strain YT10): 6250 | Minimum inhibitory concentration (MIC) ([1]; strain YT11): 25000 | Minimum inhibitory concentration (MIC) ([1]; strain YT12): 25000 | Minimum inhibitory concentration (MIC) ([1]; strain YT13): 25000 | Minimum inhibitory concentration (MIC) ([1]; strain YT14): 25000 | Minimum inhibitory concentration (MIC) ([1]; strain YT15): 25000 | Minimum inhibitory concentration (MIC) ([1]; strain YT16): 25000 | Minimum inhibitory concentration (MIC) ([1]; strain YT17): 25000 | Minimum inhibitory concentration (MIC) ([1]; strain YT18): 390.625 | Minimum inhibitory concentration (MIC) ([1]; strain YT19): 390.625 | Minimum inhibitory concentration (MIC) ([1]; strain YT20): 390.625 | Minimum inhibitory concentration (MIC) ([1]; strain YT21): 390.625 | Minimum inhibitory concentration (MIC) ([1]; strain YT22): 390.625 | Minimum inhibitory concentration (MIC) ([1]; strain YT23): 390.625 | Minimum inhibitory concentration (MIC) ([1]; strain YT24): 390.625 | Minimum inhibitory concentration (MIC) ([1]; strain YT25): 390.625 | Minimum inhibitory concentration (MIC) ([1]; strain YT26): 390.625 | Minimum inhibitory concentration (MIC) ([1]; strain YT27): 390.625 | Minimum inhibitory concentration (MIC) ([1]; strain YT28): 1562.5 | Minimum inhibitory concentration (MIC) ([1]; strain YT29): 390.625 | Minimum inhibitory concentration (MIC) ([1]; strain YT30): 390.625

CNC1CCCN(c2c(F)cc3c(=O)c(C(=O)O)cn(C4CC4)c3c2OC)C1 (centres unmarked) [Balofloxacin]
Minimum inhibitory concentration (MIC) (E. coli K12): 0.015 | Minimum inhibitory concentration (MIC) ([1]; strain YT1): 0.244 | Minimum inhibitory concentration (MIC) ([1]; strain YT2): 3.906 | Minimum inhibitory concentration (MIC) ([1]; strain YT3): 15.625 | Minimum inhibitory concentration (MIC) ([1]; strain YT4): 250 | Minimum inhibitory concentration (MIC) ([1]; strain YT5): 250 | Minimum inhibitory concentration (MIC) ([1]; strain YT6): 62.5 | Minimum inhibitory concentration (MIC) ([1]; strain YT7): 15.625 | Minimum inhibitory concentration (MIC) ([1]; strain YT8): 250 | Minimum inhibitory concentration (MIC) ([1]; strain YT9): 250 | Minimum inhibitory concentration (MIC) ([1]; strain YT10): 15.625 | Minimum inhibitory concentration (MIC) ([1]; strain YT11): 3.906 | Minimum inhibitory concentration (MIC) ([1]; strain YT12): 62.5 | Minimum inhibitory concentration (MIC) ([1]; strain YT13): 62.5 | Minimum inhibitory concentration (MIC) ([1]; strain YT14): 15.625 | Minimum inhibitory concentration (MIC) ([1]; strain YT15): 15.625 | Minimum inhibitory concentration (MIC) ([1]; strain YT16): 250 | Minimum inhibitory concentration (MIC) ([1]; strain YT17): 250 | Minimum inhibitory concentration (MIC) ([1]; strain YT18): 62.5 | Minimum inhibitory concentration (MIC) ([1]; strain YT19): 62.5 | Minimum inhibitory concentration (MIC) ([1]; strain YT20): 62.5 | Minimum inhibitory concentration (MIC) ([1]; strain YT21): 15.625 | Minimum inhibitory concentration (MIC) ([1]; strain YT22): 62.5 | Minimum inhibitory concentration (MIC) ([1]; strain YT23): 15.625 | Minimum inhibitory concentration (MIC) ([1]; strain YT24): 15.625 | Minimum inhibitory concentration (MIC) ([1]; strain YT25): 0.244 | Minimum inhibitory concentration (MIC) ([1]; strain YT26): 15.625 | Minimum inhibitory concentration (MIC) ([1]; strain YT27): 15.625 | Minimum inhibitory concentration (MIC) ([1]; strain YT28): 15.625 | Minimum inhibitory concentration (MIC) ([1]; strain YT29): 15.625 | Minimum inhibitory concentration (MIC) ([1]; strain YT30): 15.625

NCC[C@H](O)C(=O)N[C@@H]1C[C@H](N)[C@@H](O[C@H]2O[C@H](CN)[C@@H](O)[C@H](O)[C@H]2O)[C@H](O)[C@H]1O[C@H]1O[C@H](CO)[C@@H](O)[C@H](N)[C@H]1O [Amikacin]
Minimum inhibitory concentration (MIC) (E. coli K12): 0.61 | Minimum inhibitory concentration (MIC) ([1]; strain YT1): 9.765 | Minimum inhibitory concentration (MIC) ([1]; strain YT2): 9.765 | Minimum inhibitory concentration (MIC) ([1]; strain YT3): 9.765 | Minimum inhibitory concentration (MIC) ([1]; strain YT4): 9.765 | Minimum inhibitory concentration (MIC) ([1]; strain YT5): 9.765 | Minimum inhibitory concentration (MIC) ([1]; strain YT6): 9.765 | Minimum inhibitory concentration (MIC) ([1]; strain YT7): 9.765 | Minimum inhibitory concentration (MIC) ([1]; strain YT8): 9.765 | Minimum inhibitory concentration (MIC) ([1]; strain YT9): 2.441 | Minimum inhibitory concentration (MIC) ([1]; strain YT10): 39.0625 | Minimum inhibitory concentration (MIC) ([1]; strain YT11): 2500 | Minimum inhibitory concentration (MIC) ([1]; strain YT12): 2500 | Minimum inhibitory concentration (MIC) ([1]; strain YT13): 2500 | Minimum inhibitory concentration (MIC) ([1]; strain YT14): 2500 | Minimum inhibitory concentration (MIC) ([1]; strain YT15): 2500 | Minimum inhibitory concentration (MIC) ([1]; strain YT16): 2500 | Minimum inhibitory concentration (MIC) ([1]; strain YT17): 2500 | Minimum inhibitory concentration (MIC) ([1]; strain YT18): 2.441 | Minimum inhibitory concentration (MIC) ([1]; strain YT19): 9.76 | Minimum inhibitory concentration (MIC) ([1]; strain YT20): 2.441 | Minimum inhibitory concentration (MIC) ([1]; strain YT21): 2500 | Minimum inhibitory concentration (MIC) ([1]; strain YT22): 625 | Minimum inhibitory concentration (MIC) ([1]; strain YT23): 9.765 | Minimum inhibitory concentration (MIC) ([1]; strain YT24): 9.765 | Minimum inhibitory concentration (MIC) ([1]; strain YT25): 2500 | Minimum inhibitory concentration (MIC) ([1]; strain YT26): 2500 | Minimum inhibitory concentration (MIC) ([1]; strain YT27): 9.765 | Minimum inhibitory concentration (MIC) ([1]; strain YT28): 2500 | Minimum inhibitory concentration (MIC) ([1]; strain YT29): 9.765 | Minimum inhibitory concentration (MIC) ([1]; strain YT30): 2.441

Gentamicin
Minimum inhibitory concentration (MIC) (E. coli K12): 0.61 | Minimum inhibitory concentration (MIC) ([1]; strain YT1): 2.441 | Minimum inhibitory concentration (MIC) ([1]; strain YT2): 156.25 | Minimum inhibitory concentration (MIC) ([1]; strain YT3): 156.25 | Minimum inhibitory concentration (MIC) ([1]; strain YT4): 9.765 | Minimum inhibitory concentration (MIC) ([1]; strain YT5): 625 | Minimum inhibitory concentration (MIC) ([1]; strain YT6): 156.25 | Minimum inhibitory concentration (MIC) ([1]; strain YT7): 625 | Minimum inhibitory concentration (MIC) ([1]; strain YT8): 625 | Minimum inhibitory concentration (MIC) ([1]; strain YT9): 156.25 | Minimum inhibitory concentration (MIC) ([1]; strain YT10): 625 | Minimum inhibitory concentration (MIC) ([1]; strain YT11): 2500 | Minimum inhibitory concentration (MIC) ([1]; strain YT12): 2500 | Minimum inhibitory concentration (MIC) ([1]; strain YT13): 2500 | Minimum inhibitory concentration (MIC) ([1]; strain YT14): 2500 | Minimum inhibitory concentration (MIC) ([1]; strain YT15): 2500 | Minimum inhibitory concentration (MIC) ([1]; strain YT16): 2500 | Minimum inhibitory concentration (MIC) ([1]; strain YT17): 2500 | Minimum inhibitory concentration (MIC) ([1]; strain YT18): 2.441 | Minimum inhibitory concentration (MIC) ([1]; strain YT19): 625 | Minimum inhibitory concentration (MIC) ([1]; strain YT20): 156.25 | Minimum inhibitory concentration (MIC) ([1]; strain YT21): 2500 | Minimum inhibitory concentration (MIC) ([1]; strain YT22): 2500 | Minimum inhibitory concentration (MIC) ([1]; strain YT23): 156.25 | Minimum inhibitory concentration (MIC) ([1]; strain YT24): 625 | Minimum inhibitory concentration (MIC) ([1]; strain YT25): 2500 | Minimum inhibitory concentration (MIC) ([1]; strain YT26): 2500 | Minimum inhibitory concentration (MIC) ([1]; strain YT27): 625 | Minimum inhibitory concentration (MIC) ([1]; strain YT28): 2500 | Minimum inhibitory concentration (MIC) ([1]; strain YT29): 625 | Minimum inhibitory concentration (MIC) ([1]; strain YT30): 39.0625
